Laboratory results published in patent US9507284B2, “Electrophotographic photoreceptor, electrophotographic photoreceptor cartridge, image-forming apparatus, and triarylamine compound” (MITSUBISHI CHEMICAL CORPORATION, priority 2012, dated 2016).

Experiment: Storage Stability Test (coating fluid)
Type: physicochemical
Design: key: Excellent: Turbidity or the like derived from crystal precipitation is not present even after storage of coating fluid; Bad: Turbidity or the like derived from precipitation of the charge transport substance is present after storage of coating fluid
Conditions: charge transport layer coating fluid (60 parts substance, 100 parts polycarbonate PD, tetrahydrofuran/toluene 8/2) stored at −5 to 0° C. for 2 months, checked for turbidity
Experimental: As the binder resin, the polycarbonate resin (Mv=39,200) having a repeating unit represented by the structural formula (PD) was used. Then, 60 parts by mass of the charge transport substance, 100 parts by mass of the binder resin, 2 parts by mass of an antioxidant having a structure represented by the following formula (AOX2), and 0.05 parts by mass of a silicone oil as a leveling agent were dissolved in 540 parts by mass of a mixed solvent of tetrahydrofuran/toluene (mass ratio: 8/2) to prepare a charge transport layer coating fluid for coating fluid storage stability test.
The coating fluid obtained was placed in a glass sealed bottle and stored under the condition of −5 to 0° C. for 2 months. Then, it was checked whether turbidity or the like occurred or not in the coating fluid after storage, thereby evaluating the coating fluid storage stability.
The charge transport substances used in evaluation, the results of stability evaluation, and the criteria for the coating fluid stability are shown in the following Table-6.

Cc1ccc(N(c2ccc(C)cc2)c2ccc(/C=C/c3ccc(N(c4ccc(C)cc4)c4ccc(/C=C/c5ccc(N(c6ccc(C)cc6)c6ccc(C)cc6)cc5)cc4)cc3)cc2)cc1 [RCTM1]
Storage stability: Bad

CCOc1ccc(N(c2ccc(/C=C/c3ccc(N(c4ccc(C)cc4)c4ccc(C)cc4)cc3)cc2)c2ccc(/C=C/c3ccc(N(c4ccc(C)cc4)c4ccc(C)cc4)cc3)cc2)cc1 [CTM1]
Storage stability: Excellent
